# Results published in US11179401B2, “Use of vanadium compounds for maintaining normaglycemia in a mammal” (CFM Pharma Holding BV, priority 2011, dated 2021).
# Columns and labels:
# critically ill patients = conditions: intensive insulin therapy, cited from earlier work
# male Wistar rats = test: Renal ischemia-reperfusion (I/R) in anesthetized rats with BMOV infusion; format: in vivo, rat
# Procedure: Thirty two male Wistar rats (Harlan Netherlands BV, Horst, The Netherlands) with a mean body weight of 280±30 grams were used in this study. The animals were quarantined prior to start of the investigation for 1 week to permit acclimatization to their new environment and were housed in pairs in conventional cages in a light-controlled room kept at 22±1° C. with a relative humidity of 55±10%. All animals received standard laboratory rat chow and water for consumption ad libitum.
# All animals were initially anesthetized with a mixture of ketamine (Nimatek, Eurovet Animal Health BV, Bladel, The Netherlands; 90 mg/kg), dexmedetomidine (Dexdomitor, Pfizer Animal Health BV, Capelle aan den IJssel, The Netherlands; 0.5 mg/kg), and atropine sulfate (Centrafarm BV, Etten-Leur, The Netherlands; 0.05 mg/kg) by intraperitoneal injection. Once anesthetized, the area between the thoracic manubrium and chin and the left flank covering the left kidney were shaved and cleaned prior to initiating the surgical procedure. During the remainder of the surgical preparation and experimental procedures, anesthesia was maintained via tracheotomy and mechanical ventilation with an inspired oxygen fraction (FiO2) of 0.4. Body temperature was maintained at 37±0.5° C. during the entire experiment. The ventilator settings were adjusted to maintain an arterial pCO2 between 35 and 40 MmHg.
# For drug and fluid administration and hemodynamic monitoring, three vessels were cannulated with polyethylene catheters (outer diameter=0.9 mm; Braun, Melsungen, Germany). A catheter in the right carotid artery was connected to a pressure transducer to monitor arterial blood pressure and heart rate. The right jugular vein was cannulated for continuous infusion of Ringer's lactate (Baxter, Utrecht, The Netherlands) at a rate of 15 ml/kg/hr. The femoral artery was cannulated for withdrawing blood samples for blood gas analysis. Animals were kept under general anesthesia during all experiments and received continuous intravenous diluted ketamine or analgesic drug infusions. The left kidney was exposed, decapsulated, and immobilized in a Lucite (i.e. poly (methyl methacrylate); PMMA) custom made kidney cup via a ˜4 cm incision on the left flank. The renal artery and vein were carefully separated to preserve the surrounding nerves and adrenal gland. A perivascular ultrasonic transient time flow probe (type 0.7 RB; Transonic Systems, Ithaca, N.Y., USA) was placed around the left renal artery and connected to a flow meter (T206; Transonic Systems, Ithaca, N.Y., USA) to allow continuous measurement of renal blood flow (RBF). The left ureter was isolated, ligated, and cannulated with a polyethylene catheter (outer diameter=0.9 mm; Braun, Melsungen, Germany) for urine collection. A small piece of aluminum foil (10×10 mm) was placed on the dorsal site of the renal vein to prevent contribution of juxtaposed and underlying tissues from interfering with the phosphorescence signal in the venous pO2 measurement. After the surgical protocol (˜60 min), one optical fiber was placed 1 mm above the decapsulated kidney and another optical fiber 1 mm above the renal vein to measure oxygenation using a phosphorescence lifetime technique (20). Oxyphor G2 (Oxygen Enterprises, Philadelphia, Pa., USA; 6 mg/kg) was subsequently infused intravenously for 5 min, followed by 30 min of stabilization time.
# The operation field was covered with a humidified gauze compress throughout the entire experiment to prevent drying of the exposed tissues in the surgical field. The phosphorescence lifetime measurements have been described in more details elsewhere (20). The experiment was terminated by infusion of 1 ml of 3 M potassium chloride. Finally, the kidney was removed, weighed, and processed for histological evaluation. The correct placements of the catheters were also checked postmortem. […]
# [1] = BMOV 7 and 15 mg/kg infusion, 30 min ischemia, 90 min reperfusion, effect not dose-dependent
# [2] = high dose BMOV (15 mg/kg) compared to low dose (7 mg/kg)
# [3] = kidney immunohistochemistry after 30 min ischemia, 90 min reperfusion, vs I/R control, dose-dependent
Compound,overall ICU mortality (critically ill patients; reduced from 8%),ICU mortality among patients requiring more than five days intensive care (critically ill patients; reduced from 20.2%),mean arterial pressure (male Wistar rats; [1]),microvascular oxygenation in the renal cortex (male Wistar rats; [1]),microvascular oxygenation in the renal medulla (male Wistar rats; [1]),renal blood flow (male Wistar rats; [1]),renal oxygen delivery (male Wistar rats; [1]),renal oxygen utilization efficiency (VO2/Tna+) (male Wistar rats; [1]),"renal hemodynamics (male Wistar rats; FIG. 2, 30 min ischemia, 90 min reperfusion)",NGAL levels (male Wistar rats; [2]),iNOS expression (male Wistar rats; [2]),"inflammatory activation (IL-6, iNOS expression, MPO-stained leukocytes) (male Wistar rats; [3])","renal injury (biomarkers NGAL, L-FABP) (male Wistar rats; [3])"
"insulin: intensive insulin therapy in critically ill ICU patients, literature",4.6%,10.6%,–,–,–,–,–,–,–,–,–,–,–
"Cc1occc(=O)c1[O-].Cc1occc(=O)c1[O-].[O]=[V+2] [BMOV, bis(maltolato)oxovanadium(IV)]",–,–,did not affect,significantly increased,significantly increased,did not affect,did not affect,increased,did not affect,significantly lower,significantly lower,significantly decreased,significantly decreased
